{
  "source": "patent US11680086B2",
  "about": "“Lipopeptide for potently inhibiting HIV, derivative thereof, pharmaceutical composition thereof and use thereof” (Institute of Pathogen Biology, Chinese Academy of Medical …, priority 2017, dated 2023)",
  "key": {"[1]": {"test_system": "35 HIV-1 pseudoviruses (subtypes A, B, B', C, G, A/C, A/E, B/C)"}, "[2]": {"test_system": "HIV-1 strain NL4-3 (NL4-3D36G)", "experiment": "antiviral activity in serum of macaque after subcutaneous injection", "format": "in vivo, macaques (rhesus monkeys)", "details": "3 mg/kg subcutaneous", "protocol": "The specific method was as follows: 6 experimental macaques (rhesus monkeys) were selected, half male and half female, aged 3-4 years old, weighing 3.4-4.7 kg. […] The serum was separated according to a conventional method. The injection interval of each inhibitor was more than 2 weeks to ensure that there was no residue of the previous analyte. The serum activity against the HIV-1 strain NL4-3 (NL4-3D36G) was measured according to the experimental method of the pseudovirus-based assay in the above examples. The serum was diluted by 3 folds. […] Therefore, the lipopeptides of the present invention were not only potent but also were long-lasting effective."}, "[3]": {"target": "N39 (NHR-derived polypeptide of gp41) (Human immunodeficiency virus type 1 group M subtype B, UniProt P04578)", "sequence (P04578 528-566)": "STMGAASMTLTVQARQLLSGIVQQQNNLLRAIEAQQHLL", "format": "binding, HIV-1", "details": "10 μM each, PBS pH 7.2"}},
  "note": "Like-named read-outs stand apart in the source and are kept apart here. Peptide text beside a SMILES is read from it. * marks the point of attachment. Stearoyl = CCCCCCCCCCCCCCCCCC(=O)*",
  "data": [
    {"compound": "CCCCCCCCCCCCCCCCCC(=O)NCCCC[C@H](NC(=O)[C@H](CCC(=O)O)NC(=O)[C@H](CC(C)C)NC(=O)[C@H](CCCCN)NC(=O)[C@H](CCCCN)NC(=O)[C@H](CC(C)C)NC(=O)[C@H](CCC(=O)O)NC(=O)[C@H](CCC(=O)O)NC(=O)[C@H](CCC(=O)O)NC(=O)[C@H](CC(N)=O)NC(=O)[C@H](CCCCN)NC(=O)[C@H](CCCCN)NC(=O)[C@H](CCC(N)=O)NC(=O)[C@H](CCC(N)=O)NC(=O)[C@H](CCC(=O)O)NC(=O)[C@H](CCC(=O)O)NC(=O)[C@H](C)NC(=O)[C@H](CCCCN)NC(=O)[C@H](CCCCN)NC(=O)[C@H](CC(C)C)NC(=O)[C@H](CC(C)C)NC(=O)[C@H](CCC(=O)O)NC(=O)[C@H](CCC(=O)O)NC(=O)[C@@H](NC(=O)[C@H](CCCCN)NC(=O)[C@H](CCC(N)=O)NC(=O)[C@H](CCC(=O)O)NC(=O)[C@H](Cc1c[nH]c2ccccc12)NC(C)=O)[C@@H](C)CC)C(N)=O", "note": "[LP-80] (Ac-WEQKIEELLKKAEEQQKKNEEELKKLEK(Stearoyl)-NH2)", "values": [
      {"measurement": "IC50", "setting": "[1]; read-out: IC50 for many strains, many individual strains of the 35 pseudoviruses", "result": "< 1", "unit": "pM"},
      {"measurement": "IC50", "setting": "[1]; read-out: average IC50 for inhibition of various types of HIV-1 pseudoviruses, average over 35 pseudoviruses", "result": 6, "unit": "pM"},
      {"measurement": "inhibitory activity against different subtypes of HIV-1 as folds of T-20", "setting": "[1]; relative to T-20, from average IC50", "result": 6902, "unit": "folds"},
      {"measurement": "maximum serum dilution multiple for inhibiting 50% of NL4-3 infectivity", "setting": "[2]; 6 hour after injection", "result": 491409, "unit": "folds"},
      {"measurement": "maximum serum dilution multiple for inhibiting 50% of NL4-3 infectivity", "setting": "[2]; 8 hour after injection", "result": 537206, "unit": "folds"},
      {"measurement": "maximum serum dilution multiple for inhibiting 50% of NL4-3 infectivity", "setting": "[2]; 72 hours (3 days) after injection", "result": 16157, "unit": "folds"},
      {"measurement": "maximum serum dilution multiple for inhibiting 50% of NL4-3 infectivity", "setting": "[2]; 96 hours (4 days) after injection", "result": 1980, "unit": "folds"},
      {"measurement": "maximum serum dilution multiple for inhibiting 50% of NL4-3 infectivity", "setting": "[2]; 120 hours (5 days) after injection", "result": 211, "unit": "folds"},
      {"measurement": "maximum serum dilution multiple for inhibiting 50% of NL4-3 infectivity", "setting": "[2]; 144 hours (6 days) after injection", "result": 46, "unit": "folds"},
      {"measurement": "Tm value of the complex with N39", "setting": "[3]", "result": 79, "unit": "°C"}
    ]}
  ]
}
